Experimental data published in patent publication US11802113B2, “Substituted pyrazole compounds, compositions containing same, and use thereof” (Shenzhen TargetRx, Inc., priority 2019, dated 2023).

Legend:
[1] = Metabolic stability evaluation, human liver microsome; assay type: in vitro ADME; details: liver microsomes, pH 7.4, human liver microsome 0.5 mg/mL, compound 1 μM, NADPH, 37° C.; for microsomal CLint at 1 μM: read-out: HLM CL; for half-life at 1 μM: read-out: HLM T1/2
Experimental: (§1) (4) Metabolic Stability Evaluation
(§2) Microsome experiment: human liver microsome: 0.5 mg/mL, Xenotech; rat liver microsome: 0.5 mg/mL, Xenotech; coenzyme (NADPH/NADH): 1 mM, Sigma Life Science; magnesium chloride: 5 mM, 100 mM phosphate buffer (pH 7.4).
(§3) Preparation of stock solution: a certain amount of the example compound powder and control compound powder were accurately weighed, and respectively dissolved to 5 mM with DMSO.
(§4) Preparation of phosphate buffer (100 mM, pH7.4): 150 mL of 0.5M potassium dihydrogen phosphate and 700 mL of 0.5M dipotassium hydrogen phosphate prepared beforehand were mixed, with pH of the mixture adjusted to 7.4 with 0.5M dipotassium hydrogen phosphate solution. Before use, the mixture was diluted by 5 folds with ultrapure water and magnesium chloride was added to obtain the phosphate buffer (100 mM), which contains 100 mM potassium phosphate, 3.3 mM magnesium chloride, and has pH 7.4.
(§5) NADPH regeneration system solution (containing 6.5 mM NADP, 16.5 mM G-6-P, 3 U/mL G-6-P D, 3.3 mM magnesium chloride) was prepared, and placed on wet ice before use.
(§6) Preparation of stop solution: a solution of 50 ng/mL propranolol hydrochloride and 200 ng/mL tolbutamide (internal standard) in acetonitrile. 25057.5 μL of phosphate buffer (pH 7.4) was taken into a 50 mL centrifuge tube, added with 812.5 μL of human liver microsome, and mixed well to obtain a liver microsome diluent with a protein concentration of 0.625 mg/mL. 25057.5 μL of phosphate buffer (pH 7.4) was taken into a 50 mL centrifuge tube, added with 812.5 μL of SD rat liver microsome, and mixed well to obtain a liver microsome diluent with a protein concentration of 0.625 mg/mL.
(§7) Incubation of the samples: the stock solutions of the corresponding compounds were respectively diluted to 0.25 mM with an aqueous solution containing 70% acetonitrile to obtain working solutions for later use. 398 μL of human liver microsome and rat liver microsome diluents were respectively taken and added to a 96-well incubation plate (N=2), added with 2 μL of 0.25 mM working solution respectively, and mixed well.
Determination of metabolic stability: 300 μL of pre-cooled stop solution was added to each well of a 96-well deep-well plate, and the plate was placed on ice as a stop plate. The 96-well incubation plate and the NADPH regeneration system were placed in a 37° C. water bath, shaken at 100 rpm, and pre-incubated for 5 minutes. 80 μL of incubation solution was taken out of each well of the incubation plate and added to the stop plate, mixed well, and supplemented with 20 μL of NADPH regeneration system solution to obtain the 0 min sample. Then 80 μL of NADPH regeneration system solution was added to each well of the incubation plate to initiate the reaction and start timing. The reaction concentration of the corresponding compound was 1 μM, and the protein concentration was 0.5 mg/mL. At 10, 30, and 90 minutes of reaction, 100 μL of the reaction solution was taken and added to the stop plate, and vortexed for 3 minutes to stop the reaction. The stop plate was centrifuged at 5000×g for 10 min at 4° C. 100 μL of supernatant was taken to a 96-well plate pre-added with 100 μL of distilled water, mixed well, and subjected to sample analysis by LC-MS/MS.
Data analysis: the peak areas of the corresponding compound and internal standard were detected through the LC-MS/MS system, and the ratio of the peak area of the compound to the internal standard was calculated. The natural logarithm of the remaining percentage of the compound was plotted against time to measure the slope and calculate t1/2 and CLint according to the following equations, where V/M is equal to 1/protein concentration.
The compounds of the present invention and the corresponding non-deuterated compounds were simultaneously tested for comparison and evaluated for the metabolic stability in human and rat liver microsomes. The non-deuterated compound Darolutamide was used as the control.

[2] = Metabolic stability evaluation, rat liver microsome; assay type: in vitro ADME; details: SD, liver microsomes, pH 7.4, rat liver microsome 0.5 mg/mL, compound 1 μM, NADPH, 37° C.; for microsomal CLint at 1 μM: read-out: RLM CL; for half-life at 1 μM: read-out: RLM T1/2
Experimental: as §1, §2, §3, §4, §5, §6, §7
Determination of metabolic stability: 300 μL of pre-cooled stop solution was added to each well of a 96-well deep-well plate, and the plate was placed on ice as a stop plate. […]
Data analysis: the peak areas of the corresponding compound and internal standard were detected through the LC-MS/MS system, and the ratio of the peak area of the compound to the internal standard was calculated. […]
The compounds of the present invention and the corresponding non-deuterated compounds were simultaneously tested for comparison and evaluated for the metabolic stability in human and rat liver microsomes. […]

microsomal CLint at 1 μM [1] [µL/min/mg]	half-life at 1 μM [1] [h]	microsomal CLint at 1 μM [2] [µL/min/mg]	half-life at 1 μM [2] [h]	Structure (SMILES)
8.5	2.72	12.2	1.9	CC(O)c1cc(C(=O)N[C@@H](C)Cn2ccc(-c3ccc(C#N)c(Cl)c3)n2)[nH]n1 (stereo partly drawn) [Darolutamide, N—((S)-1-(3-(3-chloro-4-cyanophenyl)-1H-pyrazol-1-yl)-prop-2-yl)-5-(1-hydroxyethyl)-1H-pyrazole-3-carboxamide, reference compound]
6.2	3.7	–	–	[2H]C(C)(O)c1cc(C(=O)N[C@@H](C)Cn2ccc(-c3ccc(C#N)c(Cl)c3)n2)n[nH]1 (stereo partly drawn) [Example 1, N—((S)-1-(3-(3-chloro-4-cyanophenyl)-1H-pyrazol-1-yl)prop-2-yl)-5-(1-hydroxylethyl-1-d)-1H-pyrazole-3-carboxamide]
9.1	2.55	–	–	[2H]C([2H])([2H])C(O)c1cc(C(=O)N[C@@H](C)Cn2ccc(-c3ccc(C#N)c(Cl)c3)n2)n[nH]1 (stereo partly drawn) [Example 2, N—((S)-1-(3-(3-chloro-4-cyanophenyl)-1H-pyrazol-1-yl)prop-2-yl)-5-(1-hydroxylethyl-2,2,2-d3)-1H-pyrazole-3-carboxamide]
4	5.83	–	–	[2H]C([2H])([2H])C([2H])(O)c1cc(C(=O)N[C@@H](C)Cn2ccc(-c3ccc(C#N)c(Cl)c3)n2)n[nH]1 (stereo partly drawn) [Example 3, N—((S)-1-(3-(3-chloro-4-cyanophenyl)-1H-pyrazol-1-yl)prop-2-yl)-5-(1-hydroxylethyl-1,2,2,2-d4)-1H-pyrazole-3-carboxamide]
8.5	2.7	–	–	[2H]C([2H])([C@H](C)NC(=O)c1cc(C(C)O)[nH]n1)n1ccc(-c2ccc(C#N)c(Cl)c2)n1 (stereo partly drawn) [Example 4, N—((S)-1-(3-(3-chloro-4-cyanophenyl)-1H-pyrazol-1-yl)prop-2-yl-1,1-d2)-5-(1-hydroxyethyl)-1H-pyrazole-3-carboxamide]
4.3	5.36	–	–	[2H]C(C)(O)c1cc(C(=O)N[C@@H](C)C([2H])([2H])n2ccc(-c3ccc(C#N)c(Cl)c3)n2)n[nH]1 (stereo partly drawn) [Example 5, N—((S)-1-(3-(3-chloro-4-cyanophenyl)-1H-pyrazol-1-yl)prop-2-yl-1,1-d2)-5-(1-hydroxyethyl-1-d)-1H-pyrazole-3-carboxamide]
6.4	3.62	–	–	[2H]C([2H])([2H])C(O)c1cc(C(=O)N[C@@H](C)C([2H])([2H])n2ccc(-c3ccc(C#N)c(Cl)c3)n2)n[nH]1 (stereo partly drawn) [Example 6, N—((S)-1-(3-(3-chloro-4-cyanophenyl)-1H-pyrazol-1-yl)prop-2-yl-1,1-d2)-5-(1-hydroxyethyl-2,2,2-d3)-1H-pyrazole-3-carboxamide]
6.9	3.36	7.1	3.25	[2H]C([2H])([C@H](C)NC(=O)c1cc(C([2H])(O)C([2H])([2H])[2H])[nH]n1)n1ccc(-c2ccc(C#N)c(Cl)c2)n1 (stereo partly drawn) [Example 7, N—((S)-1-(3-(3-chloro-4-cyanophenyl)-1H-pyrazol-1-yl)prop-2-yl-1,1-d2)-5-(1-hydroxyethyl-1,2,2,2-d4)-1H-pyrazole-3-carboxamide]
7.3	3.17	–	–	[2H][C@](C)(Cn1ccc(-c2ccc(C#N)c(Cl)c2)n1)NC(=O)c1cc(C(C)O)[nH]n1 (stereo partly drawn) [Example 8, N—((S)-1-(3-(3-chloro-4-cyanophenyl)-1H-pyrazol-1-yl)prop-2-yl-2-d)-5-(1-hydroxyethyl)-1H-pyrazole-3-carboxamide]
8.1	2.85	–	–	[2H]C([2H])([2H])[C@H](NC(=O)c1cc(C(C)O)[nH]n1)C([2H])([2H])n1ccc(-c2ccc(C#N)c(Cl)c2)n1 (stereo partly drawn) [Example 9, N—((S)-1-(3-(3-chloro-4-cyanophenyl)-1H-pyrazol-1-yl)prop-2-yl-1,1,3,3,3-d5)-5-(1-hydroxyethyl)-1H-pyrazole-3-carboxamide]
4.4	5.29	–	–	[2H]C(C)(O)c1cc(C(=O)N[C@@H](C([2H])([2H])[2H])C([2H])([2H])n2ccc(-c3ccc(C#N)c(Cl)c3)n2)n[nH]1 (stereo partly drawn) [Example 10, N—((S)-1-(3-(3-chloro-4-cyanophenyl)-1H-pyrazol-1-yl)prop-2-yl-1,1,3,3,3-d5)-5-(1-hydroxyethyl-1-d)-1H-pyrazole-3-carboxamide]
